Data as given in PMC6720714, “Structural and Biological Characterizations of Novel High-Affinity Fluorescent Probes with Overlapped and Distinctive Binding Regions on CXCR4” (Molecules, 2019).
Bridge positions count the residues as written; N and C are the ends. Square brackets hold non-standard residues; d marks the D form. Ends that are not written are not given here. Peptide text beside a SMILES is read from it. 2Nal = N[C@@H](Cc1ccc2ccccc2c1)C(=O)O; Lys(iPr) = CC(C)NCCCC[C@H](N)C(=O)O; Cit = NC(=O)NCCC[C@H](N)C(=O)O

Tests used:
CXCR4 [1] = biological target: T1, CXCR4 (Homo sapiens, UniProt P61073); experiment: Three parallel CXCR4 competitive binding assays (FITC-CVX15, FITC-DV1, 12G5) compared; set-up: expressed in transfected cells; host or cells: CHO (CHO-CXCR4, G418-selected); conditions: for difference of IC50 values between the three binding systems: Type 1, relative to the minimum values
T1 sequence (P61073 whole entry): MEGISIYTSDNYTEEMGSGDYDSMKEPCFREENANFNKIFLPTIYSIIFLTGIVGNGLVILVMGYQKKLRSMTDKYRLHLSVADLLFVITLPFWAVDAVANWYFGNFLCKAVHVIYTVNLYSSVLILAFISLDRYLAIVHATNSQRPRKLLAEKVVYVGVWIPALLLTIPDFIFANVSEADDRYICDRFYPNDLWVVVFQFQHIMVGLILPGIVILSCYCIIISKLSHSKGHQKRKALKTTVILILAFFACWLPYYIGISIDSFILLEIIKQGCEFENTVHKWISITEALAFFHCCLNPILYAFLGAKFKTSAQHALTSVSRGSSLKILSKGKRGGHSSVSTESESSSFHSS
Experimental: (§1) Gradient concentrations of CXCR4 ligands were prepared with 1% BSA/PBS. CHO-CXCR4 cells were cultured and diluted into 5 × 10^5 cells/mL in 0.5% BSA/PBS. One hundred microliters of above cell solutions were added to each well of a 96-well plate and washed twice with 0.5% BSA/PBS. Cells were then incubated with 100 μL primary 12G5 Ab (1:2000, mouse anti-human CD184 antibody, BD Biosciences, CA, USA) in 0.5% BSA/PBS except for negative control group and gradient concentrations of CXCR4 ligands for 40 min on a shaker at 4 °C.

[2] = biological target: CXC-type chemokine receptor 4 (CXCR4) (UniProt P61073); experiment: competitive binding on cells, fluorescence by microplate reader; FITC-DV1-based: CHO-CXCR4 cells, 1 μM FITC-DV1 with gradient concentrations of ligand in 1% BSA/PBS, 50 min, 4 °C, dark, washed twice; excitation 485 nm, emission 535 nm
Chain of CXC-type chemokine receptor 4 (CXCR4) (UniProt P61073) (P61073 whole entry): as above

[3] = biological target: CXC-type chemokine receptor 4 (CXCR4) (UniProt P61073); experiment: competitive binding on cells, fluorescence by microplate reader; FITC-CVX15-based: CHO-CXCR4 cells, 400 nM FITC-CVX15 with gradient concentrations of ligand in 1% BSA/PBS, 50 min, 4 °C, dark, washed twice; excitation 485 nm, emission 535 nm
[4] = biological target: CXC-type chemokine receptor 4 (CXCR4) (UniProt P61073); experiment: competitive binding on cells, fluorescence by microplate reader; 12G5-based: CHO-CXCR4 cells, antibody 12G5 (250 ng/mL; 1:2000) with gradient concentrations of ligand in 0.5% BSA/PBS, 40 min, 4 °C; FITC-conjugated goat anti-mouse IgG 30 min; excitation 485 nm, emission 535 nm
CXCR4 [5] = biological target: T1, CXCR4; experiment: cell-based
CXCR4 [6] = biological target: T1, CXCR4; experiment: FITC-CVX15-based competitive binding assay on CHO-CXCR4 cells; set-up: expressed in transfected cells; host or cells: CHO (CHO-CXCR4, G418-selected)
CXCR4 [7] = biological target: T1, CXCR4; experiment: 12G5 antibody-based competitive binding assay on CHO-CXCR4 cells; set-up: expressed in transfected cells; host or cells: CHO (CHO-CXCR4, G418-selected)
Experimental: as §1

[8] = biological target: CXC-type chemokine receptor 4 (CXCR4) (UniProt P61073); experiment: saturation binding on cells, fluorescence by microplate reader
[9] = biological target: T2, CXC-type chemokine receptor 4 (CXCR4) (UniProt P61073 1-352); experiment: competitive binding on cells, fluorescence by microplate reader; FITC-DV1-based: CHO-CXCR4 cells, 1 μM FITC-DV1 with gradient concentrations of ligand in 1% BSA/PBS, 50 min, 4 °C, dark, washed twice; excitation 485 nm, emission 535 nm; conditions: one partner purified
T2 construct: also called CD184; CHO-CXCR4
T2 sequence (P61073 whole entry): as above

[10] = biological target: T2, CXC-type chemokine receptor 4 (CXCR4); experiment: competitive binding on cells, fluorescence by microplate reader; FITC-CVX15-based: CHO-CXCR4 cells, 400 nM FITC-CVX15 with gradient concentrations of ligand in 1% BSA/PBS, 50 min, 4 °C, dark, washed twice; excitation 485 nm, emission 535 nm; conditions: one partner purified
[11] = biological target: T2, CXC-type chemokine receptor 4 (CXCR4); experiment: competitive binding on cells, fluorescence by microplate reader; 12G5-based: CHO-CXCR4 cells, antibody 12G5 (250 ng/mL; 1:2000) with gradient concentrations of ligand in 0.5% BSA/PBS, 40 min, 4 °C; FITC-conjugated goat anti-mouse IgG 30 min; excitation 485 nm, emission 535 nm; conditions: one partner purified

## CC(C)C[C@@H](N)C(=O)NCC(=O)N[C@H](C)C(=O)N[C@H](CO)C(=O)N[C@H](Cc1c[nH]c2ccccc12)C(=O)N[C@H](Cc1c[nH]cn1)C(=O)N[C@H](CCCNC(=N)N)C(=O)N1CCC[C@@H]1C(=O)N[C@H](CC(=O)O)C(=O)N[C@H](CCCCN)C(=O)N[C@H](CS)C(=O)N[C@H](CS)C(=O)N[C@H](CC(C)C)C(=O)NCC(=O)N[C@H](Cc1ccc(O)cc1)C(=O)N[C@H](CCC(N)=O)C(=O)N[C@H](CCCCN)C(=O)N[C@H](CCCNC(=N)N)C(=O)N1CCC[C@@H]1C(=O)N[C@H](CC(C)C)C(=O)N1CCC[C@@H]1C(N)=O [DV1] (H-[dL]G[dA][dS][dW][dH][dR][dP][dD][dK][dC][dC][dL]G[dY][dQ][dK][dR][dP][dL][dP]-NH2)
CXCR4 [1]
  difference of IC50 values between the three binding systems: less than two folds

## CVX15 (peptide)
[2]
  IC50: 0.0068 µM
[3]
  IC50: 0.0062 µM
[4]
  IC50: 0.006 µM

## CC(C)C[C@H](NC(=O)[C@H](CS)NC(=O)[C@H](CS)NC(=O)[C@H](CCCCN)NC(=O)[C@H](CC(=O)O)NC(=O)[C@@H]1CCCN1C(=O)[C@H](CCCNC(=N)N)NC(=O)[C@H](Cc1c[nH]cn1)NC(=O)[C@H](Cc1c[nH]c2ccccc12)NC(=O)[C@H](CO)NC(=O)[C@H](C)NC(=O)CNC(=O)[C@@H](N)CC(C)C)C(=O)NCC(=O)N[C@@H](Cc1ccc(O)cc1)C(=O)N[C@@H](CCC(N)=O)C(=O)N[C@@H](CCCCN)C(=O)N[C@@H](CCCNC(=N)N)C(=O)N1CCC[C@H]1C(=O)N[C@@H](CC(C)C)C(=O)N1CCC[C@H]1C(=O)O [V1] (H-LGASWHRPDKCCLGYQKRPLP-OH)
CXCR4 [5]
  IC50: 0.676 µM
CXCR4 [6]
  IC50: 0.687 µM
CXCR4 [7]
  IC50: 0.712 µM
CXCR4 [1]
  difference of IC50 values between the three binding systems: less than two folds

## N=C(N)NCCC[C@@H]1NC(=O)[C@@H]2CSSC[C@H](NC(=O)[C@H](Cc3ccc4ccccc4c3)NC(=O)[C@H](CCCNC(=N)N)NC(=O)[C@H](CCCNC(=N)N)NC(=O)[C@H]3CCCN3C(=O)CNC1=O)C(=O)N[C@@H](Cc1ccc(O)cc1)C(=O)N[C@@H](CCC(N)=O)C(=O)N[C@@H](CCCCN)C(=O)N1CCC[C@@H]1C(=O)N1CCC[C@H]1C(=O)N[C@@H](Cc1ccc(O)cc1)C(=O)N[C@@H](CCCNC(=N)N)C(=O)N[C@@H](CCCNC(N)=O)C(=O)N2 [CVX15] (cyclo(RR[2Nal]CYQK[dP]PYR[Cit]CRG[dP]); disulfide 4-13)
CXCR4 [1]
  difference of IC50 values between the three binding systems: less than two folds

## CC(C)NCCCC[C@H](NC(=O)[C@H]1CCC(=O)N[C@@H](Cc2ccccc2)C(=O)N[C@@H](Cc2ccc(O)cc2)C(=O)N[C@@H](CCCCNC(C)C)C(=O)N[C@H](CCCNC(=N)N)C(=O)N[C@@H](Cc2ccc3ccccc3c2)C(=O)NCC(=O)N1)C(N)=O [LY2510924] (FY[Lys(iPr)][dR][2Nal]G[dE][Lys(iPr)]-NH2; lactam N-7)
CXCR4 [1]; Type 3
  IC50 from 12G5-based assay versus IC50 from FITC-CVX15 and FITC-DV1 assays: over two-fold higher

## FITC-CVX15 (peptide)
[8]
  concentration at which the fluorescent signal reached a plateau: 400 nM

## [dL]G[dA][dS][dW][dH][dR][dP][dD][dK][dC][dC][dL]G[dY][dQ][dK][dR][dP][dL][dP] (cysteine pairing not given here; also: dimer (linkage not given here)) [DV1 dimer]
[9]
  IC50: 0.0256 µM
[10]
  IC50: 0.0294 µM
[11]
  IC50: 0.067 µM
